Source: patent publication US6790971B1, “19-Nor-steroids” (Aventis Pharma S.A., priority 1989, dated 2004)

Assays:
[1] = target: T1, Mineralocorticoid Receptor of the Rats' Kidney (Rattus norvegicus, UniProt P22199); test: Relative affinity of the bond, mineralocorticoid receptor (tritiated aldosterone displacement); type: binding; settings: RAB=100(CH)/(CX); for Relative affinity of the bond (RAB), Mineralocorticoid, 1 H: incubation 1 H at 0° C.; for Relative affinity of the bond (RAB), Mineralocorticoid, 24 H: incubation 24 H at 0° C.
T1 construct: The kidneys were then removed, decapsulated and homogenized at 0° C; from tissue; host or cells: kidney cytosol (105,000 g supernatant) of adrenalectomised male Sprague-Dawley rats
T1 sequence (P22199 1-981): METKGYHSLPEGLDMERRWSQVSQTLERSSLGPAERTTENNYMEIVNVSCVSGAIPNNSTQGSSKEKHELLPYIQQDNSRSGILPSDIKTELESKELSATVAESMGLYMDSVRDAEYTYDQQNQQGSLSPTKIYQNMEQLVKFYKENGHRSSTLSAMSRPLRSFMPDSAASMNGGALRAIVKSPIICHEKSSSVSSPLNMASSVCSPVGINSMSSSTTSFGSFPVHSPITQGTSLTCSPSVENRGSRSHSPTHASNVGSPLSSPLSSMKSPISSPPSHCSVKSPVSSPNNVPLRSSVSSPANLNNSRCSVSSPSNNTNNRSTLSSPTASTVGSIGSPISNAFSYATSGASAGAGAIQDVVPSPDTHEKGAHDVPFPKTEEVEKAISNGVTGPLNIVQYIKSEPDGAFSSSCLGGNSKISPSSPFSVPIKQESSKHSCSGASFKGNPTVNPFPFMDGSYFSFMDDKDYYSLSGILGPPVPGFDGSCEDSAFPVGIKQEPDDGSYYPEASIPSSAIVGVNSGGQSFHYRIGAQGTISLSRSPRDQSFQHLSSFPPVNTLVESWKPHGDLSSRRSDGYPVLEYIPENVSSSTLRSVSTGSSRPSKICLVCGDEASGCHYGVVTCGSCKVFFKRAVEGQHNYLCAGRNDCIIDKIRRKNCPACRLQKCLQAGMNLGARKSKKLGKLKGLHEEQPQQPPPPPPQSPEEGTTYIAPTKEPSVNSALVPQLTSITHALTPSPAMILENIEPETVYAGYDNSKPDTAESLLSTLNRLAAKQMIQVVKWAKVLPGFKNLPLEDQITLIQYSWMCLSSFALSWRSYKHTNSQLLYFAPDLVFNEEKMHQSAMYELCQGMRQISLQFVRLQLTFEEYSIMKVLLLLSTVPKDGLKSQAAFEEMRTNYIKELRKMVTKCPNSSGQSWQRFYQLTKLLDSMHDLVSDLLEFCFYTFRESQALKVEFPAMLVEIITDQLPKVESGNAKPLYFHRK
Experimental: Mineralocorticoid Receptor of the Rats' Kidney:
Male Sprague-Dawley EOPS rats weighing 140 to 160 g were subjected to supraenalectomy 4 to 8 days earlier and were sacrificed and their kidneys were perfused in situ with 50 ml of a 10 mM Tris, 0.25 M saccharose, HCl buffer pH 7.4. The kidneys were then removed, decapsulated and homogenized at 0° C. with the aid of a Potter teflon-glass (1 g of tissue for 3 ml of buffer). The homogenate was centrifuged for 10 minutes at […] and 0° C. and then to eliminate the fixation of the tritiated aldosterone upon the glucocorticoid receptor, 11β-,17β-dihydroxy-21-methyl-Δ^1,4,6-pregnatrien-20-yn-3-one which was fixed uniquely upon the glucocorticoid receptor was added to the supernatant at a final concentration of 10^−6 M. This supernatant was ultracentrifuged at 105,000 g for 60 minutes at 0° C. and aliquots of the supernatant thus obtained were incubated at 0° C. with a constant concentration (T) of tritiated aldosterone in the presence of increasing concentrations ([…]) of the cold aldosterone or the cold product to be studied. After an incubation time (t), the concentration of bound tritiated aldosterone (B) was measured by the adsorption on dextran carbon technique.
Calculation of the Relative Affinty of the Bond
The calculation of the Relative Affinity of the Bond (RAB) was identical for all the receptors. The following 2 curves were traced; the percentage of the bound tritiated hormone [formula]
was a function of the logarithm of the concentration of the cold reference hormone and [formula]
as a function of the logarithm of the concentration of the cold product tested.
One determined the straight line of the equation [formula]
The intersections of the straight line I50 and of the curves make it possible to evaluate the concentrations of the cold reference hormone (CH) and of the tested cold product (CX) which inhibit to an extend of 50% the binding of the tritiated hormone upon the receptor. The relative affinity of the bond (RAB) of the tested product is determined by the equation

[2] = tested on: MCF-7 mammary tumoral cells; test: Anti-proliferative activity upon the growth of MCF-7 cells (DNA measurement with DABA); type: cell-based; settings: 6 days, inhibition of the increase of DNA, read-out: concentration which inhibited the growth of MCF7 to an extent of 50% (IC50)
Experimental: B. Anti-proliferative activity of the products of the invention upon the growth of MCF-7 mammary tumoral cells.
The MCF-7 strains were kept under culture in FCS(1) medium at 37° C. under a humid atmosphere containing 5% CO2 and the cells at subconfluence were harvested by trypsination (0.05% trypsine, 0.02% EDTA), then rinsed by gentle centrifugation. A sample of the cells in suspension was counted on Malassez cell.
The cells, resuspended in FCS medium, were seeded at a rate of 30,000 cells per pit in multi-pit plates (24 pits of 2.5 cm^2) and twenty four hours after seeding (DO), the product to be tested was added to the medium in ethanolic solution (final concentration in ethanol: 0.1%), at a concentration of 10^−12 to 10^−6 M, the control pits receiving the same concentration of ethanol. The media were renewed every 48 hours and at the end of the experiment (D6), the medium was sucked off and the cells were immediately fixed with 150 microliters of methanol to estimate the DNA. The anti-proliferative activity of the products was evaluated by their capacity to inhibit the increase of DNA.
The DNA was measured by a fluorimetric method employing DABA (3,5-diaminobenzoic acid) (2): 150 microliters of DABA were added to each of the pits and the plates were then incubated for 45 minutes at 56° C., then 2 ml of 1 N HCl were added. The fluorescence was measured with the aid of a fluorimeter (length of the exiting wave: 408 nm, length of the emitting wave: 501 nm). The quantity of DNA per pit was evaluated with reference to a standard scale obtained by treating a standard DNA from calf thymus under the same conditions.
The concentration in nM which inhibited the growth of MCF7 to an extent of 50% (IC50) was determined in the manner indicated below:
(1) The fetal calf serum (FCS) culture medium was prepared as follows: MEM medium (minimal essential medium) to which were added:
Non-essential amino acids (GIBCO),
Peni-strepto (100 U/ml penicillin, 0.1 mg/ml streptomycin),
Fetal calf serum containing no steroids (10% final concentration).
(2) Puzas and Goodman, Analytical Biochemistry, Vol. 86, pp. 50, 1978.

| Relative affinity of the bond (RAB), Mineralocorticoid, 1 H [1] | Relative affinity of the bond (RAB), Mineralocorticoid, 24 H [1] | IC50 [2] [pM] | Molecule |
| --- | --- | --- | --- |
| 0.4 | 0.5 | 20 | N-butyl-3,17β-dihydroxy-N-methyl-19-nor-11β-Δ^1,3,5(10)-pregnatrien-20-yn undecanamide [Example 21] |
| 0 | 0 | 20 | CC(C)N(C)C(=O)CCCCCCCCCC[C@H]1C[C@]2(C)[C@@H](O)CC[C@H]2[C@@H]2CCc3cc(O)ccc3[C@@H]12 [Example 16, 3,17β-dihydroxy-N-methyl-N-isopropyl-11β-Δ^1,3,5(10)-estratriene undecanamide] |
| 0.19 | 0.00 | 500 | CCCCN(C)C(=O)CCCCCCCCCC[C@H]1C[C@]2(C)[C@@H](O)CC[C@H]2[C@@H]2CCc3cc(O)ccc3[C@@H]12 [Example 13, N-Butyl-3,17β-Dihydroxy-N-Methyl-11β-Δ^1,3,5(10)-Estratriene-Undecanamide] |
| 2 | 0.5 |  | CN(Cc1ccccc1)C(=O)CCCCCCCCCC[C@H]1C[C@]2(C)[C@@H](O)CC[C@H]2[C@@H]2CCC3=CC(=O)CCC3=C12 [Example 17, N-benzyl-17β-hydroxy-N-methyl-3-oxo-11β-Δ^4,9-estradiene undecanamide] |
| 0 | 0 |  | CC#C[C@]1(O)CC[C@H]2[C@@H]3CCC4=CC(=O)CCC4=C3[C@@H](CCCCCCCCCCC(=O)NCCCC)C[C@@]21C [Example 22, N-butyl-17β-hydroxy-3-oxo-17α-(1-propynyl)-11β-Δ^4,9-estradiene undecanamide] |
| 0 | 0 | 60 | CCCCN(C)C(=O)CCCCCCCCCCC[C@H]1C[C@]2(C)[C@@H](O)CC[C@H]2[C@@H]2CCc3cc(O)ccc3[C@@H]12 [Example 24, N-butyl-3,17β-dihydroxy-N-methyl-11β-Δ^1,3,5(10)-estratriene dodecanamide] |

| Molecule | Relative affinity of the bond (RAB), Mineralocorticoid, 1 H [1] | Relative affinity of the bond (RAB), Mineralocorticoid, 24 H [1] | IC50 [2] [pM] |
| --- | --- | --- | --- |
| CN(C)CCN(C)C(=O)CCCCCCCCCC[C@H]1C[C@]2(C)[C@@H](O)CC[C@H]2[C@@H]2CCC3=CC(=O)CCC3=C12 [Example 19, N-[2-(dimethylamino)-ethyl]-17β-hydroxy-N-methyl-3-oxo-11β-Δ^4,9-estradiene undecanamide] | 0.7 | 0.1 |  |
